Results: patent US10660872B2, “Methods for treatment of cognitive decline” (Ramot at Tel-Aviv University Ltd., priority 2014, dated 2020)

Experiments:
ICR mice [1] = assay: hot plate test (analgesia); conditions: single intraperitoneal dose, from 15 minutes after injection, hotplate 45° C.
ICR mice [2] = assay: open field test (immobility); conditions: single intraperitoneal dose, five minutes in arena
aged ICR mice = assay: oasis maze test (spatial learning); conditions: 0.002 mg/kg THC, three times a week for three weeks
ICR mice [3] = assay: body temperature using a rectal thermometer; conditions: single intraperitoneal dose
aged mice = assay: Object Recognition Test (visual memory) in aged mice; conditions: 0.002 mg/kg THC intraperitoneal, 3 times a week for three weeks
[4] = conventional dose 1, 2 or 10 mg/kg
[5] = low dose 0.001, 0.002 or 0.01 mg/kg

**Q.** Which results are given for `CCCCCc1cc(O)c2c(c1)OC(C)(C)[C@@H]1CCC(C)=C[C@@H]21` [THC, (−)-trans-Δ^9-tetrahydrocannabinol]?
**A.** analgesia (latency to respond to noxious stimulus) (ICR mice [1]; [4]): induced conventional acute cannabinoid effects; analgesia (latency to respond to noxious stimulus) (ICR mice [1]; [5]): failed to induce any of these effects; immobility (slowing of motor activity) (ICR mice [2]; [4]): induced conventional acute cannabinoid effects; immobility (slowing of motor activity) (ICR mice [2]; [5]): failed to induce any of these effects; time to finding the filled well in test trials (aged ICR mice): find the filled well in significantly less time than aged mice treated with vehicle alone; hypothermia (reduced body temperature) (ICR mice [3]; [4]): induced conventional acute cannabinoid effects; hypothermia (reduced body temperature) (ICR mice [3]; [5]): failed to induce any of these effects; adverse acute effects upon administration (aged mice): No adverse acute effects were recognized
